In patent EP0900211B1 (PHARMACIA & UPJOHN COMPANY, priority 1996, dated 1997):
Counter-ions that a name gives are not always drawn.

Target: Stromelysin (Homo sapiens, UniProt P08254)
Assay: MMP inhibition, particle concentration fluorescence assay
Assay type: biochemical
Conditions: in vitro; fluorescein/biotin substrate; MMP buffer pH 7.5; room temperature
Experimental: Inhibitory activity is evaluated in one or more of the MMP enzymes (stromelysin, gelatinase, and collagenase) in vitro using particle concentration fluorescence assay. An inhibitor binds to MMP enzymes which prevents the degradation of a substrate by stromelysin, gelatinase, or collagenase. The substrate has attached to it a fluorescein and a biotin moiety. The intact substrate then binds to an avidin-coated particle via the biotin moiety. Once the particle is washed and dried, a fluorescent signal is generated since the fluorescent group is attached to the particle. Without an inhibitor present, the substrate is degraded by MMP enzymes and the fluorescein group is removed, therefore, no fluorescent signal can be detected. Testing compounds are dissolved in DMSO to the desired concentration, then the solutions are diluted to 1:5 with MMP buffer (50 mM Tris-HCl, pH 7.5; 150 mM NaCl; 0.02% NaN3). Serial two-fold dilutions of each compound are prepared. A concentrated, activated enzyme solution is transferred into each plate of the testing compounds, and the mixture is incubated at room temperature for 15 minutes. […] At this point, the substrate mixture is mixed with 0.1% avidin-coated polystyrene particles. After 15 minutes, the fluorescence values are measured following filtration and washing of the beads. Ki values are then calculated.

Stromelysin, sequence (P08254 100-477): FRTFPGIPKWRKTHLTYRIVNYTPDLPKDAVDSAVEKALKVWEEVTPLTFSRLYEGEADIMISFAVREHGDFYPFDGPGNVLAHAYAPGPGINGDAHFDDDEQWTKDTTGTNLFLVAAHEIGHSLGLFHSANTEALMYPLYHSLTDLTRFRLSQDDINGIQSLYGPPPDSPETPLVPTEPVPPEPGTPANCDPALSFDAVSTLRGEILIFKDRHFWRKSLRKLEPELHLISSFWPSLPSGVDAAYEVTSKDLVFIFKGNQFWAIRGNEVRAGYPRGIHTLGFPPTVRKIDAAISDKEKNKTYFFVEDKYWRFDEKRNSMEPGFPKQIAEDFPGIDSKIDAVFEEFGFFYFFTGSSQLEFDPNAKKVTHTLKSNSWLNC

| Structure (SMILES) | Ki |
| --- | --- |
| O=C(Nc1n[nH]c(=S)s1)N[C@@H](Cc1ccccc1)C(=O)NCCc1ccccc1 [Example 6, α-[[[(4,5-Dihydro-5-thioxo-1,3,4-thiadiazol-2-yl)amino]carbonyl]-amino]-N-(2-phenylethyl)-(S)-benzenepropanamide] | 300 nM |
| O=C(Nc1n[nH]c(=S)s1)N[C@@H](Cc1ccccc1)C(=O)NCc1ccccn1 [Example 7, α-[[[(4,5-Dihydro-5-thioxo-1,3,4-thiadiazol-2-yl)amino]carbonyl]-amino]-N-(2-pyridinylmethyl)-(S)-benzenepropanamide] | 1100 nM |
| CNC(=O)[C@H](Cc1c[nH]c2ccccc12)NC(=O)Nc1n[nH]c(=S)s1 [Example 13, α-[[[(4,5-Dihydro-5-thioxo-1,3,4-thiadiazol-2-yl)amino]carbonyl]-amino]-N-methyl-(S)-1H-indole-3-propanamide] | 2500 nM |
| O=C(Nc1n[nH]c(=S)s1)N[C@@H](Cc1ccccc1)C(=O)NCc1ccncc1 [Example 17, α-[[[(4,5-Dihydro-5-thioxo-1,3,4-thiadiazol-2-yl)amino]-carbonyl]amino]-N-(4-pyridinylmethyl)-(S)-benzenepropanamide] | 1270 nM |
| O=C(Nc1n[nH]c(=S)s1)N[C@@H](Cc1ccccc1)C(=O)NCc1cccnc1 [Example 18, α-[[[(4,5-Dihydro-5-thioxo-1,3,4-thiadiazol-2-yl)amino]carbonyl]-amino]-N-(3-pyridinylmethyl)-(S)-benzenepropanamide] | 2010 nM |
| O=C(Nc1n[nH]c(=S)s1)N[C@@H](Cc1ccccc1)C(=O)NCCN1CCOCC1 [Example 19, α-[[[(4,5-Dihydro-5-thioxo-1,3,4-thiadiazol-2-yl)amino]carbonyl]-amino]-N-[2-(4-morpholinyl)ethyl]-(S)-benzenepropanamide] | 1990 nM |
| CNC(=O)C(Cc1ccc(Br)cc1)NC(=O)Nc1n[nH]c(=S)s1 (stereo not drawn) [Example 20, α-[[[(4,5-Dihydro-5-thioxo-1,3,4-thiadiazol-2-yl)amino]carbonyl]-amino]-N-methyl-4-bromobenzene-propanamide] | 800 nM |
| COC(=O)[C@@H](NC(=O)Nc1n[nH]c(=S)s1)c1ccccc1 [Example 24, (S)-N-[[(4,5-Dihydro-5-thioxo-1,3,4-thiadiazol-2-yl)amino]carbonyl]-2-phenylglycine methyl ester] | 7660 nM |
| CC(C)C[C@H](NC(=O)Nc1n[nH]c(=S)s1)C(=O)NCCc1ccccc1 [Example 28, 2-[[[(4,5-Dihydro-5-thioxo-1,3,4-thiadiazol-2-yl)amino]-carbonyl]amino]-4-methyl-N-(2-phenylethyl)-(S)-pentanamide] | 3490 nM |
| CC(C)C[C@H](NC(=O)Nc1n[nH]c(=S)s1)C(=O)NCc1ccccc1 [Example 29, 2-[[[(4,5-Dihydro-5-thioxo-1,3,4-thiadiazol-2-yl)amino]carbonyl]amino]-4-methyl-N-(phenylmethyl)-(S)-pentanamide] | 4420 nM |
| COC(=O)[C@H](Cc1ccc(OC)cc1)NC(=O)Nc1n[nH]c(=S)s1 [Example 30, N-[[(4,5-Dihydro-5-thioxo-1,3,4-thiadiazol-2-yl)amino]carbonyl]-O-methyl-L-tyrosine methyl ester] | 2750 nM |
| COC(=O)[C@H](Cc1ccc([N+](=O)[O-])cc1)NC(=O)Nc1n[nH]c(=S)s1 [Example 32, N-[[(4,5-Dihydro-5-thioxo-1,3,4-thiadiazol-2-yl)amino]carbonyl]-L-(4-nitrophenyl)alanine methyl ester] | 1870 nM |
| O=C(Nc1n[nH]c(=S)s1)N[C@@H](Cc1ccc([N+](=O)[O-])cc1)C(=O)NCCc1ccccc1 [Example 34, α-[[[(4,5-Dihydro-5-thioxo-1,3,4-thiadiazol-2-yl)amino]carbonyl]amino]-4-nitro-N-(2-phenylethyl)-(S)-benzenepropanamide] | 210 nM |
| CCCCNC(=O)[C@H](Cc1ccc([N+](=O)[O-])cc1)NC(=O)Nc1n[nH]c(=S)s1 [Example 35, N-Butyl-α-[[[(4,5-dihydro-5-thioxo-1,3,4-thiadiazol-2-yl)amino]carbonyl]amino]-4-nitro-(S)-benzenepropanamide] | 350 nM |
| O=C(Nc1n[nH]c(=S)s1)N[C@@H](Cc1ccccc1)C(=O)NCCCCc1ccccc1 [Example 37, aα-[[[(4,5-Dihydro-5-thioxo-1,3,4-thiadiazol-2-yl)amino]carbonyl]amino]-N-(4-phenylbutyl)-(S)-benzenepropanamide] | 820 nM |
| O=C(Nc1n[nH]c(=S)s1)N[C@@H](Cc1ccccc1)C(=O)NCCCO [Example 41, α-[[[(4,5-Dihydro-5-thioxo-1,3,4-thiadiazol-2-yl)amino]-carbonyl]amino]-N-(3-hydroxypropyl)-(S)-benzenepropanamide] | 1120 nM |
| CCOC(=O)CCNC(=O)[C@H](Cc1ccccc1)NC(=O)Nc1n[nH]c(=S)s1 [Example 42, N-[[(4,5-Dihydro-5-thioxo-1,3,4-thiadiazol-2-yl)amino]carbonyl]-L-phenylalanyl-β-alanine ethyl ester] | 780 nM |
| CNC(=O)CCNC(=O)[C@H](Cc1ccccc1)NC(=O)Nc1n[nH]c(=S)s1 [Example 43] | 1340 nM |
| O=C(O)CCNC(=O)[C@H](Cc1ccccc1)NC(=O)Nc1n[nH]c(=S)s1 [Example 44] | 1080 nM |
| COC(=O)[C@H](CO[Si](C)(C)C(C)(C)C)NC(=O)Nc1n[nH]c(=S)s1 [Example 45, N-[[(4,5-Dihydro-5-thioxo-1,3,4-thiadiazol-2-yl)amino]carbonyl]-O-[(1,1-dimethylethyl)dimethylsilyl]-L-serine methyl ester] | 1530 nM |
| CNC(=O)[C@H](CO[Si](C)(C)C(C)(C)C)NC(=O)Nc1n[nH]c(=S)s1 [Example 46, 2-[[[(4,5-Dihydro-5-thioxo-1,3,4-thiadiazol-2-yl)amino]carbonyl]amino]-3-[(1,1-dimethylethyl)-dimethylsilyloxy]-N-methyl-(S)-propanamide] | 750 nM |
| COC(=O)[C@H](Cc1ccc(O[Si](C)(C)C(C)(C)C)cc1)NC(=O)Nc1n[nH]c(=S)s1 [Example 47, N-[[(4,5-Dihydro-5-thioxo-1,3,4-thiadiazol-2-yl)amino]carbonyl]-O-[(1,1-dimethylethyl)dimethylsilyl]-L-tyrosine methyl ester] | 6370 nM |
| O=C(Nc1n[nH]c(=S)s1)N[C@@H](Cc1ccccc1)C(=O)NCc1ccc2c(c1)OCO2 [Example 49, α-[[[(4,5-Dihydro-5-thioxo-1,3,4-thiadiazol-2-yl)amino]-carbonyl]amino]-N-(piperonyl)-(S)-benzenepropanamide] | 1000 nM |
| O=C(Nc1n[nH]c(=S)s1)N[C@@H](Cc1ccccc1)C(=O)N1CCNCC1 [Example 56, (S)-1-[2-[[[(4,5-Dihydro-5-thioxo-1,3,4-thiadiazol-2-yl)amino]carbonyl]amino]-1-oxo-3-phenylpropyl]piperazine trifluoroacetate] | 5270 nM |

Continued, values first:

| Ki | Structure (SMILES) |
| --- | --- |
| 1680 nM | O=C(Nc1n[nH]c(=S)s1)N[C@@H](Cc1ccccc1)C(=O)N1CCN(c2ccccc2)CC1 [Example 50, (S)-1-[2-[[[(4,5-Dihydro-5-thioxo-1,3,4-thiadiazol-2-yl)amino]carbonyl]amino]-1-oxo-3-phenylpropyl]-4-phenylpiperazine] |
| 1020 nM | O=C(Nc1n[nH]c(=S)s1)N[C@@H](Cc1ccccc1)C(=O)NCCCc1ccccc1 [Example 51, α-[[[(4,5-Dihydro-5-thioxo-1,3,4-thiadiazol-2-yl)amino]carbonyl]amino]-N-(3-phenylpropyl)-(S)-benzenepropanamide] |
| 750 nM | O=C(Nc1n[nH]c(=S)s1)N[C@@H](Cc1ccccc1)C(=O)NCc1ccc(C(F)(F)F)cc1 [Example 52, α-[[[(4,5-Dihydro-5-thioxo-1,3,4-thiadiazol-2-yl)amino]carbonyl]-amino]-N-[(4-trifluoromethylphenyl)methyl]-(S)-benzenepropanamide] |
| 1310 nM | O=C(Nc1n[nH]c(=S)s1)N[C@@H](Cc1ccccc1)C(=O)NCc1ccc([N+](=O)[O-])cc1 [Example 53, α-[[[(4,5-Dihydro-5-thioxo-1,3,4-thiadiazol-2-yl)amino]carbonyl]amino]-N-[(4-nitrophenyl)methyl]-(S)-benzenepropanamide] |
| 1740 nM | CC(C)(C)c1ccc(CNC(=O)[C@H](Cc2ccccc2)NC(=O)Nc2n[nH]c(=S)s2)cc1 [Example 54, α-[[[(4,5-Dihydro-5-thioxo-1,3,4-thiadiazol-2-yl)amino]-carbonyl]amino]-N-[[4-(1,1-dimethylethyl)phenyl]methyl]-(S)-benzenepropanamide] |
| 4250 nM | O=C(Nc1n[nH]c(=S)s1)N[C@@H](Cc1ccccc1)C(=O)N1CCN(C(c2ccccc2)c2ccccc2)CC1 [Example 55, (S)-1-[2-[[[(4,5-Dihydro-5-thioxo-1,3,4-thiadiazol-2-yl)amino]carbonyl]amino]-1-oxo-3-phenylpropyl]-4-(benzhydryl)piperazine] |
| 640 nM | O=C(Nc1n[nH]c(=S)s1)N[C@@H](Cc1ccccc1)C(=O)NCc1nc2ccccc2[nH]1 [Example 57, N-(1H-Benzimidazol-2-ylmethyl)-α-[[[(4,5-dihydro-5-thioxo-1,3,4-thiadiazol-2-yl)amino]carbonyl]amino]-(S)-benzenepropanamide] |
| 800 nM | O=C(Nc1n[nH]c(=S)s1)N[C@@H](Cc1ccccc1)C(=O)NCc1cccc2ccccc12 [Example 58, α-[[[(4,5-Dihydro-5-thioxo-1,3,4-thiadiazol-2-yl)amino]carbonyl]amino)-N-(1-naphthylmethyl)-(S)-benzenepropanamide] |
| 2950 nM | COC(=O)[C@H](Cc1ccc(N)cc1)NC(=O)Nc1n[nH]c(=S)s1 [Example 59, N-[[(4,5-Dihydro-5-thioxo-1,3,4-thiadiazol-2-yl)amino]carbonyl]-L-(4-aminophenyl)alanine methyl ester] |
| 650 nM | O=C(Nc1n[nH]c(=S)s1)N[C@@H](CC1CCCCC1)C(=O)NCCc1ccccc1 [Example 62, α-[[[(4,5-Dihydro-5-thioxo-1,3,4-thiadiazol-2-yl)amino]carbonyl]amino]-N-(2-phenylethyl)-(S)-cyclohexanepropanamide] |
| 2390 nM | COC(=O)[C@H](COCc1ccccc1)NC(=O)Nc1n[nH]c(=S)s1 [Example 63, N-[[(4,5-Dihydro-5-thioxo-1,3,4-thiadiazol-2-yl)amino]carbonyl]-O-(phenylmethyl)-L-serine methyl ester] |
